Measured values: ChEMBL document CHEMBL4840337, “A Potent Fluorescent Reversible-Covalent Inhibitor of Cardiac Muscle Contraction” (ACS Med Chem Lett, 2021)
The source made the active and inactive calls. The calls are words filed in the database; no cut-off is given here.

Key:
[1] = Drug degradation assessed as new spectra with MW of 202 Da formation at 40 uM measured after incubation of 8-month old compound with [15N]-labelled cNTnC (1 to 90 residues)-cTnI (136 to 163 residues) C35S mutant chimeric protein (unknown origin) by 2D 1H, 15N HSQC NMR spectroscopy analysis; type: ADME
[2] = Stability of the compound in NMR buffer at 50 uM in the absence of DTT measured after 40 hrs at 30 degC by 1D H-NMR analysis; type: physicochemical
[3] = organism: Bos taurus; assay: Inhibition of actomyosin ATPase activity in bovine cardiac myofibrils assessed as reduction in inorganic phosphate release using ATP as substrate preincubated for 30 mins in presence of pCa 9 followed by substrate addition by malachite green based assay
[4] = Binding affinity to calcium saturated His tagged cNTnC (1 to 90 residues)- cTnI (136 to 163 residues) C35S mutant chimeric protein (unknown origin) assessed as dissociation constant by flourescence spectroscopy analysis; set-up: species or system Homo sapiens
[5] = Covalent binding affinity to [15N]-labelled cNTnC (1 to 90 residues)- cTnI (136 to 163 residues) C35S mutant chimeric protein (unknown origin) expressed in Escherichia coli BL21 (DE3) assessed as dissociation constant by 2D 1H, 15N HSQC NMR spectroscopy analysis; set-up: species or system Homo sapiens
[6] = organism: Homo sapiens; assay: Binding affinity to BME-bound [15N]-labelled cNTnC (1 to 90 residues)- cTnI (136 to 163 residues) C35S mutant chimeric protein (unknown origin) expressed in Escherichia coli BL21 (DE3) up to 60 uM in the presence of DTT by 2D 1H, 15N HSQC NMR spectroscopy analysis; conditions: dose microM <=60
[7] = Drug degradation assessed as new spectra with MW of 404 Da formation at 40 uM measured after incubation of 8-month old compound with [15N]-labelled cNTnC (1 to 90 residues)-cTnI (136 to 163 residues) C35S mutant chimeric protein (unknown origin) by 2D 1H, 15N HSQC NMR spectroscopy analysis; type: ADME
[8] = organism: Bos taurus; assay: Inhibition of actomyosin ATPase activity in bovine cardiac myofibrils assessed as reduction in inorganic phosphate release using ATP as substrate preincubated for 30 mins in presence of pCa 6 followed by substrate addition by malachite green based assay
[9] = Binding affinity to calcium saturated His-tagged cNTnC (1 to 90 residues)- cTnI (136 to 163 residues) A-Cys chimeric protein harboring C35S/C84S double mutant (unknown origin) assessed as dissociation constant by flourescence spectroscopy analysis; set-up: species or system Homo sapiens
[10] = organism: Homo sapiens; assay: Binding affinity to [15N]-labelled cNTnC (1 to 90 residues)- cTnI (136 to 163 residues) A-Cys chimeric protein harboring C35S/C84S double mutant (unknown origin) assessed as NMR fast exchange by 2D 1H, 15N HSQC NMR spectroscopy analysis
[11] = organism: Homo sapiens; assay: Binding affinity to BME-bound [15N]-labelled cNTnC (1 to 90 residues)- cTnI (136 to 163 residues) C35S mutant chimeric protein (unknown origin) expressed in Escherichia coli BL21 (DE3) up to 60 uM by 2D 1H, 15N HSQC NMR spectroscopy analysis; conditions: dose microM <=60
[12] = Reactivity with dithiothreitol in NMR buffer at 50 uM measured up to 24 hrs by 1D H-NMR analysis; conditions: time hrs <=24
[13] = Aqueous solubility of the compound by fluorescence spectroscopy analysis; type: physicochemical
[14] = Inhibition of actomyosin ATPase activity in bovine cardiac myofibrils assessed as reduction in inorganic phosphate release using ATP as substrate preincubated for 30 mins in presence of pCa 4.5 followed by substrate addition by malachite green based assay; set-up: species or system Bos taurus
[15] = Aqueous solubility of the compound by 1D H-NMR spectroscopy analysis; type: physicochemical

N#C/C(=C\c1ccc(N(c2ccccc2)c2ccccc2)cc1)C(=O)O
Drug degradation [1]: Active | Stability [2]: Stable | inhibition [3]: inactive | Kd [4]: 56 nM | Kd [5]: < 500 nM | Activity [6]: Active | Drug degradation [7]: Active | inhibition [8]: Active | Kd [9]: 45 nM | Activity [10]: inactive | Activity [11]: inactive | Activity [12]: Active | solubility [13]: < 50 µM | IC50 [14]: 11 nM | solubility [15]: < 50 µM
